Experiment in all cases: DTP human tumour cell line panel, 48 h
The test system of test [1] is A549 NSCLC.
In test [2] the test system is EKVX NSCLC.
The subject of test [3] is HL-60(TB) leukemia.
The test system of test [4] is IGROV1 ovarian.
For test [5], the system named is MDA-MB-231 breast.
The subject of test [6] is MDA-MB-435.
For test [7], the system named is SF-539 CNS.
The subject of test [8] is SK-MEL-2 melanoma.
The test system of test [9] is SK-OV-3 ovarian.
Test [10] concerns TK-10 renal.

Where “and” joins values, the source holds several entries; their conditions need not be identical. Equal entries are not always repeated.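 A five-concentration, 48-hour dose response in 96-well plates underlies each endpoint, interpolated linearly between surrounding concentrations. GI50 is the concentration that inhibits growth by half. The concentration for full growth arrest is given as TGI.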

`NC(=O)c1cc(I)ccc1NC(=O)/C=C/c1ccccc1Cl`: the GI50 (commonly the concentration that inhibits growth by half) was 1180 nM in [1]; 1330 nM in test [2]; 158 nM in [3]; 352 nM in test [4]; 1630 nM in [5]; 204 nM in test [6]. Besides, the concentration for 50% growth inhibition (GI50) in test [7] was 410 nM; in test [8] it was 628 nM; in test [9], 529 nM; in test [10] it was 2480 nM. In addition, the TGI (in general, the concentration at which net growth stops) is 25200 nM in test [1]; greater than 69000 nM in [2]; 631 nM in test [3]; 16900 nM in test [4]; 31900 nM in test [5]; 578 nM in test [6]. Besides, the TGI in test [7] was 2830 nM; in test [8] it was 30100 nM; in test [9], 14900 nM.
Regarding `CCCCCCCCCCCCNC(=O)N[C@H](C(=O)N[C@H]1/C=C/CCNC(=O)/C=C/[C@H](C)NC1=O)C(C)C`, the GI50 in test [1] is 262 nM; in [2], 477 nM; in test [3], 143 nM; in test [4], 60 nM; in [5] it was 70.9 nM; in test [6], 31.6 nM. In addition, the GI50 in [7] was 80.5 nM; in test [8], 207 nM; in [9], 339 nM; in test [10], 35.2 nM. Besides, the TGI in [1] turned out to be 9070 nM; in test [2], 12600 nM; in test [3] it was 13300 nM; in test [4], 2240 nM; in [5], 277 nM; in [6] it was 286 nM. The TGI in test [7] amounted to 263 nM; in test [8] it was 627 nM; in [9], 1990 nM; in test [10], 191 nM.
Take `CC1NC(C(=O)O)Cc2cc(O)c(O)cc21` (stereo not drawn): the TGI in test [1], in test [2], in test [3], in test [4], in test [5] and in test [6] was greater than 100000 nM in each case. For the same compound, the TGI in [7], in test [8], in test [9] and in test [10] was greater than 100000 nM in each case.
For `CN(C)c1ccc(/C=C(\C#N)c2ccccc2)cc1`, the GI50 in test [1] is 730 nM and 796 nM and 691 nM; in test [2], 499 nM and 1430 nM and 1780 nM; in [3], 218 nM and 340 nM; in test [4], 599 nM and 1810 nM; in test [5], 1660 nM and 1970 nM; in test [6] it was 42.4 nM and 192 nM and 130 nM. The concentration for 50% growth inhibition (GI50) in test [7] was 324 nM and 481 nM; in [8], 453 nM and 465 nM; in test [9] it was 421 nM and 622 nM and 641 nM; in test [10], 553 nM and 999 nM and 4900 nM. Moreover, the TGI in [1] is greater than 100000 nM; in test [2], greater than 100000 nM; in [3], 11800 nM; in test [4], greater than 100000 nM; in test [5] it was 78400 nM and 76700 nM; in test [7] it was 1340 nM and 4480 nM. Also, the total growth inhibition concentration (TGI) in test [8], in [9] and in test [10] was greater than 100000 nM each time.
On to `NS(=O)(=O)c1ccc(N=Nc2c(O)[nH]c3ccc(C(=O)NCCc4cnc[nH]4)cc23)cc1`, for which the GI50 in [1], in [2], in test [3], in test [4], in [5] and in test [6] was greater than 25000 nM throughout. Moreover, the GI50 in [7], in test [8], in test [9] and in [10] was greater than 25000 nM in each case. In addition, the TGI in [1], in test [2], in test [3], in [4], in test [5] and in test [6] was greater than 25000 nM in each case. The TGI in test [7], in test [8], in [9] and in test [10] was greater than 25000 nM in each case.
Take `CN1CCN(Cc2ccc(NC(=O)c3cncc(C#Cc4c(N)ncc5c(F)cccc45)c3)cc2C(F)(F)F)CC1`: the GI50 in test [1] was 794 nM; in [2], 732 nM; in [3], 330 nM; in test [4], 726 nM; in test [5], 522 nM; in [6], 597 nM. Also, the GI50 in [7] was 593 nM; in [8], 809 nM; in test [9] it was 2140 nM; in [10], 951 nM. Moreover, the TGI in test [1] was 1560 nM; in test [2], 1460 nM; in [3], 1220 nM; in test [4], 1610 nM; in test [5], 1170 nM; in test [6], 1240 nM. The TGI in test [7] stood at 1220 nM; in test [8], 1930 nM; in [9] it was 7450 nM; in test [10] it was 1710 nM.
As to `CC(=O)OC1CC2C(C)(C)CCC[C@]2(C)C2=C1C(O)=C(C(C)C)C(=O)C2=O` (stereo partly drawn), the GI50 is 521 nM in test [1]; 300 nM in [2]; 613 nM in test [3]; 1530 nM in [4]; 477 nM in [5]; 335 nM in test [6]. Also, the GI50 in [7] was 723 nM; in [8] it was 356 nM; in test [9] it was 2590 nM; in [10], 1430 nM. The TGI in [1] was 3010 nM; in [2] it was 1530 nM; in [3], 4230 nM; in [4], 5520 nM; in test [5], 3740 nM; in [6], 1720 nM. Also, the TGI in test [7] is 3830 nM; in [8], 1390 nM; in test [9], greater than 28400 nM; in test [10] it was 12800 nM.
Take `O=C1Nc2ccc(O)cc2/C1=C\c1ccncc1`: the GI50 in test [1] is 26200 nM; in test [2], 10600 nM; in test [3], 36000 nM; in test [4], 4270 nM; in [5], 14600 nM; in test [6], 18200 nM. Moreover, the GI50 was 6110 nM in test [7], 14500 nM in [8], 58900 nM in [9] and 18600 nM in [10]. Further, the TGI is 82800 nM in test [1]; 56000 nM in [2]; greater than 100000 nM in test [3]; 41600 nM in [4]; 39400 nM in test [5]; 71000 nM in [6]. For the same compound, the TGI is 23100 nM in [7], 43100 nM in [8], greater than 100000 nM in [9] and 39800 nM in test [10].
